Consider five compounds from US11807693B2 (priority 2014, dated 2023).

SMILES strings stand for the structures. Where two headings read alike, the source gives them in different places. Starred links: 1 amine or outer side, 2 acyl side, 3 side chain; linkers in the order of their positions; H or OH if unused. Non-standard residues stand in square brackets, D forms with d. Residues, ends and D or L forms follow the SMILES beside them. *: point of attachment. dBip = N[C@H](Cc1ccc(-c2ccccc2)cc1)C(=O)O; Oic = O=C(O)[C@@H]1C[C@@H]2CCCC[C@@H]2N1; Phe(4-Cl) = N[C@@H](Cc1ccc(Cl)cc1)C(=O)O; Phe(4-I) = N[C@@H](Cc1ccc(I)cc1)C(=O)O; γGlu = O=C(O)[C@H](CCC(=O)[*:2])N[*:1]; d(β3hF) = N[C@@H](CC(=O)O)Cc1ccccc1; NMeR = CN[C@@H](CCCNC(=N)N)C(=O)O; Palmitoyl = CCCCCCCCCCCCCCCC(=O)*; Tridecanoyl = CCCCCCCCCCCCC(=O)*; hArg = N=C(N)NCCCC[C@H](N)C(=O)O; Cha = N[C@@H](CC1CCCCC1)C(=O)O; NMeL = CN[C@@H](CC(C)C)C(=O)O; αMeL = CC(C)C[C@](C)(N)C(=O)O; Nle = CCCC[C@H](N)C(=O)O; AEEA = NCCOCCOCC(=O)O

The nature of data set [1]: In vitro stability in rat plasma. It counts as in vitro ADME. An outline of the steps:
(§1)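 Stability was followed for 4 hr at 37° C. after spiking peptides (5 μM final) into rat plasma and tissue homogenates. Methanol quench with internal standard preceded high resolution LC-MS.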

Data set [2] in a line: In vitro stability in rat liver homogenate. It counts as in vitro ADME. Conditions: tissue homogenate. In a few lines:
as §1

The next data set addresses T1, rat APJ receptor (Rattus norvegicus, UniProt Q9JHG3).
T1 construct: expressed in transfected cells
T1 sequence (Q9JHG3 1-377): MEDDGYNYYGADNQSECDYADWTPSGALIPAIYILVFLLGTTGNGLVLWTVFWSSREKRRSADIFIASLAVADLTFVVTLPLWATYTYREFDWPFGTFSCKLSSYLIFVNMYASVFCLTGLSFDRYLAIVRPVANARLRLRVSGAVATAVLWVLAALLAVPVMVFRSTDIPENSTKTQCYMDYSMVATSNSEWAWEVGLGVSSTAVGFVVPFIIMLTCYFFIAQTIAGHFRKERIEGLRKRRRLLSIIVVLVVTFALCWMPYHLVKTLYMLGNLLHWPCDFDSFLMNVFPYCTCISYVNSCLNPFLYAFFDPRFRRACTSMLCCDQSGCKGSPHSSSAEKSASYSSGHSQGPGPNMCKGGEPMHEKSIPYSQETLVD
The data set can be described thus: [35S] GTPγS assay, rat APJ receptor. In kind it is biochemical. The method, then: The membranes were incubated with modified peptides in the assay buffer. […] Bound [^35S] GTPγS was separated from free radiolabel by filtration. The filter bound radioactivity was determined by liquid scintillation counting.

A short description of data set [3]: In vitro stability in rat kidney homogenate. In kind it is in vitro ADME. Conditions: rat, tissue homogenate. In a few lines: as §1
[4] abbreviates: Table 16, read-out: EC50 Rat APJ Receptor.
The mark [5] stands for this setting: rat APJ receptor, read-out: EC50 Rat APJ Receptor.

One may read the fraction remaining as what is left of the initial amount, in per cent. A higher fraction remaining goes with less turnover. Usually EC50 stands for the concentration at which the effect is half-maximal. Consider `CCCCCCCCCCCCC(=O)N[C@@H](CCC(=O)NCCOCCOCC(=O)NCCOCCOCC(=O)N[C@@H](CCC(N)=O)C(=O)N[C@@H](CCCNC(=N)N)C(=O)N1CCC[C@H]1C(=O)N(C)[C@@H](CCCNC(=N)N)C(=O)N[C@@H](CC(C)C)C(=O)N[C@@H](CO)C(=O)N[C@@H](Cc1c[nH]cn1)C(=O)N[C@@H](CCCCN)C(=O)NCC(=O)N1CCC[C@H]1C(=O)N[C@@H](CCCC)C(=O)N1CCC[C@@]1(C)C(=O)N[C@@H](Cc1ccc(Cl)cc1)C(=O)O)C(=O)O` [compound 401], for which the results for the amount remaining at 4 h, 5 μM in data set [1], in data set [2] and in data set [3] were 6%, 1% and 3%, respectively. The EC50 on rat APJ receptor (setting [4]) stood at 0.351 nM.

With `CCCCCCCCCCCCC(=O)N[C@@H](CCC(=O)NCCOCCOCC(=O)NCCOCCOCC(=O)N[C@@H](CCC(N)=O)C(=O)N[C@@H](CCCCNC(=N)N)C(=O)N1CCC[C@H]1C(=O)N(C)[C@@H](CCCNC(=N)N)C(=O)N[C@@](C)(CC(C)C)C(=O)N[C@@H](CO)C(=O)N[C@@H](Cc1c[nH]cn1)C(=O)N[C@@H](CCCCN)C(=O)NCC(=O)N1[C@H](C(=O)N[C@@H](CCCC)C(=O)N2CCC[C@H]2C(=O)N[C@@H](Cc2ccc(Cl)cc2)C(=O)O)C[C@@H]2CCCC[C@@H]21)C(=O)O` [compound 359] ({Tridecanoyl-γGlu-AEEA-AEEA}-Q[hArg]P[NMeR][αMeL]SHKG[Oic][Nle]P[Phe(4-Cl)]-OH), the share remaining at 4 h, 5 μM in data set [1] stood at 62%; in data set [2] it was 3%; in data set [3], 2%. In addition, at rat APJ receptor (setting [4]), the EC50 is 0.116 nM.

As for `CC(=O)N[C@@H](CCCCNC(=N)N)C(=O)N[C@H](CCCNC(=N)N)C(=O)N[C@@H](CCC(N)=O)C(=O)N[C@@H](CCCCNC(=N)N)C(=O)N1CCC[C@H]1C(=O)N[C@@H](CCC(=O)O)C(=O)N(C)[C@@H](CC(C)C)C(=O)N[C@@H](CO)C(=O)N[C@@H](Cc1c[nH]cn1)C(=O)N[C@@H](CCCCN)C(=O)NCC(=O)N1[C@H](C(=O)N[C@@H](Cc2ccc(I)cc2)C(=O)N2CCC[C@H]2C(=O)N[C@H](Cc2ccc(-c3ccccc3)cc2)C(=O)O)C[C@@H]2CCCC[C@@H]21` [compound 79] (Ac-[hArg][dR]Q[hArg]PE[NMeL]SHKG[Oic][Phe(4-I)]P[dBip]-OH), the values for the fraction remaining at 4 h, 5 μM in data set [1], in data set [2] and in data set [3] were over 90%, under 1% and 1.3%, respectively. Also, the EC50 at rat APJ receptor (setting [5]) came to 0.341 nM.

As for `CCCCCCCCCCCCCCCC(=O)N[C@@H](CCC(=O)NCCOCCOCC(=O)NCCOCCOCC(=O)N[C@H](CCC(N)=O)C(=O)N[C@@H](CCCNC(=N)N)C(=O)N1CCC[C@H]1C(=O)N(C)[C@@H](CCCNC(=N)N)C(=O)N[C@@H](CC1CCCCC1)C(=O)N[C@@H](CO)C(=O)N[C@@H](Cc1c[nH]cn1)C(=O)N[C@@H](CCCCN)C(=O)NCC(=O)N1[C@H](C(=O)N[C@@H](CCCC)C(=O)N[C@@H](CC(=O)O)Cc2ccccc2)C[C@@H]2CCCC[C@@H]21)C(=O)O` [compound 573] ({Palmitoyl-γGlu-AEEA-AEEA}-[dQ]RP[NMeR][Cha]SHKG[Oic][Nle][d(β3hF)]-OH), the results for the fraction remaining at 4 h, 5 μM in data set [1], in data set [2] and in data set [3] were 79%, 59% and 27%, respectively. Moreover, the EC50 at rat APJ receptor (setting [5]) was 4.25 nM.

For `CCCCCCCCCCCCC(=O)N[C@@H](CCC(=O)NCCOCCOCC(=O)NCCOCCOCC(=O)N[C@@H](CCC(N)=O)C(=O)N(C)[C@@H](CCCNC(=N)N)C(=O)N[C@@](C)(CC(C)C)C(=O)N[C@@H](CO)C(=O)N[C@@H](Cc1c[nH]cn1)C(=O)N[C@@H](CCCCN)C(=O)NCC(=O)N1[C@H](C(=O)N[C@@H](CCCC)C(=O)N2CCC[C@H]2C(=O)N[C@@H](Cc2ccc(Cl)cc2)C(=O)O)C[C@@H]2CCCC[C@@H]21)C(=O)O` [compound 397] ({Tridecanoyl-γGlu-AEEA-AEEA}-Q[NMeR][αMeL]SHKG[Oic][Nle]P[Phe(4-Cl)]-OH), the figures for the share remaining at 4 h, 5 μM in data set [1], in data set [2] and in data set [3] were 87%, 2% and 1%, respectively. Besides, on rat APJ receptor (setting [4]), the EC50 came out at 16.5 nM.
